In patent US20120141788A1, “PROCESS AND DEVICE FOR THE PRECIPITATION OF AN ORGANIC COMPOUND” (Fujifilm Manufacturing Europe B.V., priority 2006, published 2012):

Assays:
[1] = Particle size distribution of the precipitate measured with a Malvern Mastersizer 2000; type: physicochemical; conditions: precipitated particles; for D50 of this batch / D90 of this batch: ethanol/water, Malvern Mastersizer 2000
Text: Preferably, the precipitated organic compound is in particulate form and has a D50 of less than 500 nm, more preferably less than 400 nm, even more preferably of less than 300 nm, and in particular less than 200 nm. The D50 can be measured by techniques known in the art, e.g. laser diffraction according to method ISO 13320-1 using e.g. a Malvern Mastersizer 2000 particle size analyser.
The particle size distribution is wide, including many particles of 10 μm edge length or more. […] The D50 of this batch is 14.59 μm. So 50% of all particles have a volume median size which is smaller than 14.59 μm. The D90 of this batch is 36.22 μm.
Particle size distribution was measured with a Malvern Mastersizer 2000. The D50 of this batch is 9.17 μm. The D90 of this batch is 18.72 μm. (FIG. 8)

[2] = Saturation concentration in ethanol; type: physicochemical; conditions: 325 K

Compound	particle size distribution (shape, in words) [1]	D50 of this batch [1]	D90 of this batch [1]	saturation conc. in EtOH [2]
CC(=O)[C@H]1CC[C@H]2[C@@H]3CC=C4C[C@@H](O)CC[C@]4(C)[C@H]3CC[C@]12C [Comparative Example 1, pregnenolone]	wide	14.59 μm	36.22 μm	–
CC(=O)[C@H]1CC[C@H]2[C@@H]3CC=C4C[C@@H](O)CC[C@]4(C)[C@H]3CC[C@]12C [Comparative Example 3, pregnenolone]	narrower particle size distribution than Comparative Example 2	9.17 μm	18.72 μm	–
CC(=O)[C@H]1CC[C@H]2[C@@H]3CC=C4C[C@@H](O)CC[C@]4(C)[C@H]3CC[C@]12C [Inventive Example 1, pregnenolone]	narrow	9.17 μm	18.72 μm	–
CC(=O)[C@H]1CC[C@H]2[C@@H]3CC=C4C[C@@H](O)CC[C@]4(C)[C@H]3CC[C@]12C [pregnenolone]	–	–	–	34 g/L
